Minimal effective concentration and TGI % data for 13 molecules are collected here from patent US20260317340A1, “COMPOUNDS, COMPOSITIONS, AND METHODS OF TREATING DISORDERS” (Chengdu Anticancer Bioscience, Ltd., priority 2023, published 2026).

The test system of assay [1] is RPE-Neo or RPE-MYC or RPE-MYC expressing an EGFP-Histone 2B fusion protein. The experiment in a line: Phenotypic screening assay: arrest in mitosis, change in DNA content (polyploidy), cell death. The format is cell-based. As to conditions: 20 nM to 20 μM, 24, 48 or 72 hours. A digest of the protocol:
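RPE-Neo, RPE-MYC or RPE-MYC EGFP-H2B cells plated 18-24 h before treatment with compounds at 20 nM to 20 μM. Mitotic arrest or DNA-content change scored by automated imaging at 24, 48 or 72 h; proliferation by MTT. Values binned into A–D ranges.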

The next assay concerns RPE-Neo or RPE-MYC cells. The experiment in a line: MTT assay of cellular proliferation (proliferative arrest). The format is cell-based. As to conditions: read-out: Min. Effective conc. for Proliferative arrest (>50%).
For assay [2], the system named is human cancer cell line NCI-H460. The assay can be described thus: Tumor growth inhibition, NCI-H460 tumors in BAL B/c nude mice. The format is in vivo, human tumor cell line in BAL B/c nude mice. The conditions noted are these: oral, 4 days-on, 3 days-off, 30% PEG300. On the procedure: (§1) Six- to seven-week-old female BAL B/c nude mice were used in the human cancer cell line NCI-H460, which was derived from a lung cancer patient. Six- to seven-week-old female BAL B/c mice were used in the mouse […] cell line CT26 allograft models. 100 μL cell suspensions containing one million cells with […] (Corning, Cat. No. 354254) were implanted subcutaneously into the right flank of mice. Mice were monitored daily for well-being and weighed twice weekly. Caliper measurements of tumor sizes began when tumors became visible. Tumor volume (TV) was calculated by measuring two perpendicular diameters using the following formula: (L×W2)/2 in which L and W refer to the length and width of a tumor, respectively. When tumors reached an average size of 100 mm3, mice were first ranked according to tumor size and divided into “n” cohorts with X mice in each cohort. Each cohort was then sorted into 1 to X groups according to the random numbers size order generated by the RAND 0)function in Excel. In this way, the mice were randomized into X groups (n=4-6). Then the mice were orally administrated with vehicle (30% PEG 300) or indicated compounds at a dose volume of 5 mL/kg in a double-blinded manner. Oral administration was chosen because this is the intended route of use in the clinic. In all cases, no tumor measurement data or animals were excluded from the data analysis. Percentage of tumor growth inhibition (TGI) was calculated using the following formula: % TGI=average 100×[1−(final TV−initial TV of treatment group)/(final TV−initial TV of control group)]. As set forth in table 3 below, an values of greater than or equal to 35% and less than or equal to 45% […] is marked “C”; a value greater than 45% and less than or equal to 55% is marked “B”; a value greater than 55% and less than or equal to 70% is marked “A”; and […]

The nature of assay [3]: Tumor growth inhibition, CT26 allograft in BAL B/c mice. The format is in vivo, mouse tumor cell line in BAL B/c mice. As to conditions: oral, 4 days-on, 3 days-off, 20 days, 30% PEG300. The procedure:
as §1

Setting [4] is: read-out: Min. Effective conc. for Along with Cell Death.
The mark [5] stands for this setting: ≥5%, read-out: Min. Effective conc. for Mitotic Arrest (≥5%).
Setting [6] is: ≥5%, read-out: Min. Effective conc. for Polyploidy (≥5%).

Read-outs that look alike come from different tables or passages of the source.

In the case of `COc1ccc(CN2C(=O)CC(c3ncc(C)o3)=Cc3ccc(-c4cnn(CCO)c4)cc32)cc1` [Compound 36, 8-(1-(2-hydroxyethyl)-1H-pyrazol-4-yl)-1-(4-methoxybenzyl)-4-(5-methyloxazol-2-yl)-1,3-dihydro-2H-benzo[b]azepin-2-one], the minimal effective concentration (in assay [1] (setting [4]); in assay [1] (setting [5]); in assay [1] (setting [6]); with RPE-Neo or RPE-MYC cells) was 0.001 to 1 µM each time. For the same molecule, the TGI % entry in assay [2] (15 mg/kg, 20 days) was “A (greater than 55% and less than or equal to 70%)”.

For the molecule `COc1ccc(CN2C(=O)CC(c3ncc(C)o3)=Cc3ccc(-c4cnn(CCN5CCOCC5)c4)cc32)cc1` [Compound 38, 1-(4-methoxybenzyl)-4-(5-methyloxazol-2-yl)-8-(1-(2-morpholinoethyl)-1H-pyrazol-4-yl)-1,3-dihydro-2H-benzo[b]azepin-2-one], the minimal effective concentration (in assay [1] (setting [4]); in assay [1] (setting [5]); in assay [1] (setting [6]); in the assay on RPE-Neo or RPE-MYC cells) was 0.001 to 1 µM throughout. In addition, the TGI % result in assay [2] (36 mg/kg, 20 days) was “B (greater than 45% and less than or equal to 55%)”.

With `COc1ccc(CN2C(=O)CC(c3ncc(C)o3)=Cc3ccc(-c4ccc(N)nc4)cc32)cc1` [Compound 42, 8-(6-aminopyridin-3-yl)-1-(4-methoxybenzyl)-4-(5-methyloxazol-2-yl)-1,3-dihydro-2H-benzo[b]azepin-2-one], the minimal effective concentration (in assay [1] (setting [4]); in assay [1] (setting [5]); in assay [1] (setting [6]); in the assay on RPE-Neo or RPE-MYC cells) was 0.001 to 1 µM each time. In addition, in assay [2] (36 mg/kg, 13 days), the TGI % entry is “C (greater than or equal to 35% and less than or equal to 45% μM)”.

Take `COc1ccc(CN2C(=O)CC(c3ncc(C)o3)=Cc3ccc(-c4ccc(=O)n(C)c4)cc32)cc1` [Compound 45, 1-(4-methoxybenzyl)-8-(1-methyl-6-oxo-1,6-dihydropyridin-3-yl)-4-(5-methyloxazol-2-yl)-1,3-dihydro-2H-benzo[b]azepin-2-one]: the minimal effective concentration (in assay [1] (setting [4]); in assay [1] (setting [5]); in assay [1] (setting [6]); with RPE-Neo or RPE-MYC cells) was 0.001 to 1 µM in each case. In addition, the TGI % result in assay [2] (36 mg/kg, 20 days) was “A (greater than 55% and less than or equal to 70%)”.

In the case of `COCCn1cc(-c2ccc3c(c2)N(Cc2ccc(OC)cc2)C(=O)CC(c2ncc(C)o2)=C3)cn1` [Compound 51, 1-(4-methoxybenzyl)-8-(1-(2-methoxyethyl)-1H-pyrazol-4-yl)-4-(5-methyloxazol-2-yl)-1,3-dihydro-2H-benzo[b]azepin-2-one], the minimal effective concentration (in assay [1] (setting [4]); in assay [1] (setting [5]); in assay [1] (setting [6]); in the assay on RPE-Neo or RPE-MYC cells) was 0.001 to 1 µM in each case. Further, the TGI % entry in assay [2] (15 mg/kg, 29 days) was “A (greater than 55% and less than or equal to 70%)”.

With `COc1ccc(CN2C(=O)CC(c3ncc(C)o3)=Cc3ccc(-c4cnn(CC5CC5)c4)cc32)cc1` [Compound 53, 8-(1-(cyclopropylmethyl)-1H-pyrazol-4-yl)-1-(4-methoxybenzyl)-4-(5-methyloxazol-2-yl)-1,3-dihydro-2H-benzo[b]azepin-2-one], the minimal effective concentration (in assay [1] (setting [4]); in assay [1] (setting [5]); in assay [1] (setting [6]); in the assay with RPE-Neo or RPE-MYC cells) was 0.001 to 1 µM throughout. The TGI % entry in assay [2] (40 mg/kg, 20 days) is “C (greater than or equal to 35% and less than or equal to 45% μM)”.

On to `COc1ccc(CN2C(=O)CC(c3ncc(C)o3)=Cc3ccc(-c4cnn(C5COC5)c4)cc32)cc1` [Compound 54, 1-(4-Methoxybenzyl)-4-(5-methyloxazol-2-yl)-8-(1-(oxetan-3-yl)-1H-pyrazol-4-yl)-1,3-dihydro-2H-benzo[b]azepin-2-one], for which the minimal effective concentration (in assay [1] (setting [4]); in assay [1] (setting [5]); in assay [1] (setting [6]); with RPE-Neo or RPE-MYC cells) was 0.001 to 1 µM throughout. Moreover, the TGI % result in assay [2] (50 mg/kg, 20 days) is “C (greater than or equal to 35% and less than or equal to 45% μM)”.

Consider `COCCCn1cc(-c2ccc3c(c2)N(Cc2ccc(OC)cc2)C(=O)CC(c2ncc(C)o2)=C3)cn1` [Compound 57, 1-(4-Methoxybenzyl)-8-(1-(3-methoxypropyl)-1H-pyrazol-4-yl)-4-(5-methyloxazol-2-yl)-1,3-dihydro-2H-benzo[b]azepin-2-one], for which the minimal effective concentration (in assay [1] (setting [4]); in assay [1] (setting [5]); in assay [1] (setting [6]); with RPE-Neo or RPE-MYC cells) was 0.001 to 1 µM in each case. For the same molecule, the TGI % result in assay [2] (80 mg/kg, 20 days) was “A (greater than 55% and less than or equal to 70%)”.

For `COc1ccc(CN2C(=O)CC(c3ncc(C)o3)=Cc3ccc(-c4cnn(CC(C)O)c4)cc32)cc1` (stereo not drawn) [Compound 61, 8-(1-(2-hydroxypropyl)-1H-pyrazol-4-yl)-1-(4-methoxybenzyl)-4-(5-methyloxazol-2-yl)-1,3-dihydro-2H-benzo[b]azepin-2-one], the minimal effective concentration (in assay [1] (setting [4]); in assay [1] (setting [5]); in assay [1] (setting [6]); with RPE-Neo or RPE-MYC cells) was 0.001 to 1 µM each time. Also, the TGI % entry in assay [3] (10 mg/kg) is “A (greater than 55% and less than or equal to 70%)”.

With `COc1ccc(CN2C(=O)CC(c3nnc(C4CC4)o3)=Cc3ccc(-c4cnn(CC(C)(C)O)c4)cc32)cc1` [Compound 94, 4-(5-Cyclopropyl-1,3,4-oxadiazol-2-yl)-8-(1-(2-hydroxy-2-methylpropyl)-1H-pyrazol-4-yl)-1-(4-methoxybenzyl)-1,3-dihydro-2H-benzo[b]azepin-2-one], the minimal effective concentration (in assay [1] (setting [4]); in assay [1] (setting [5]); in assay [1] (setting [6]); in the assay on RPE-Neo or RPE-MYC cells) was 0.001 to 1 µM throughout. Also, the TGI % result in assay [3] (8 mg/kg) was “B (greater than 45% and less than or equal to 55%)”.

Consider `COc1ccc(CN2C(=O)CC(c3cnco3)=Cc3ccc(-c4cnn(CC(C)(C)O)c4)cc32)cc1` [Compound 96, 8-(1-(2-Hydroxy-2-methylpropyl)-1H-pyrazol-4-yl)-1-(4-methoxybenzyl)-4-(oxazol-5-yl)-1,3-dihydro-2H-benzo[b]azepin-2-one], for which the minimal effective concentration (in assay [1] (setting [4]); in assay [1] (setting [5]); in assay [1] (setting [6]); in the assay on RPE-Neo or RPE-MYC cells) was 0.001 to 1 µM throughout. Also, the TGI % result in assay [3] (20 mg/kg) is “A (greater than 55% and less than or equal to 70%)”.

Take `COc1ccc(C(=O)N2CCC(c3ncc(C)o3)=Cc3ccc(-c4cnn(CC(C)(C)O)c4)cc32)cc1F` [Compound 106, (3-Fluoro-4-methoxyphenyl)(8-(1-(2-hydroxy-2-methylpropyl)-1H-pyrazol-4-yl)-4-(5-methyloxazol-2-yl)-2,3-dihydro-1H-benzo[b]azepin-1-yl)methanone]: the minimal effective concentration (in assay [1] (setting [4]); in assay [1] (setting [5]); in assay [1] (setting [6]); with RPE-Neo or RPE-MYC cells) was 0.001 to 1 µM throughout.

On to `COc1ccc(CN2C(=O)CC(c3ncc(C)o3)=Cc3ccc(-c4cnn(C(C)(C)C(N)=O)c4)cc32)cc1F` [Compound 107, 2-(4-(1-(3-fluoro-4-methoxybenzyl)-4-(5-methyloxazol-2-yl)-2-oxo-2,3-dihydro-1H-benzo[b]azepin-8-yl)-1H-pyrazol-1-yl)-2-methylpropanamide], for which the minimal effective concentration (in assay [1] (setting [4]); in assay [1] (setting [5]); in assay [1] (setting [6]); with RPE-Neo or RPE-MYC cells) was 0.001 to 1 µM in each case.
